Numbers after ± are expanded uncertainties.
Details: Liquid, Closed cell (Static) method

SMILES | vapor or sublimation pressure (373 K) | vapor or sublimation pressure (412.8 K) | vapor or sublimation pressure (452.3 K) | vapor or sublimation pressure (412.5 K) | vapor or sublimation pressure (452.2 K) | vapor or sublimation pressure (373.2 K) | vapor or sublimation pressure (413.2 K) | vapor or sublimation pressure (453.2 K)
CCOC(C)=O [ethyl acetate] | 205.7 ± 9 kPa | 557.1 ± 23 kPa | 1222.7 ± 49 kPa |  |  |  |  | 
CCOC(=O)OCC [diethyl carbonate] | 45.1 ± 2.1 kPa |  |  | 143 ± 5.9 kPa | 361 ± 15 kPa |  |  | 
CC(=O)Oc1ccccc1 [phenyl ethanoate] |  |  |  |  |  | 3.5 ± 0.2 kPa | 18.2 ± 0.8 kPa | 66.1 ± 2.7 kPa

Reference: the NIST ThermoML archive (doi:10.1016/j.jct.2015.07.024)
